From PubChem BioAssay (NCI)
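Cells were grown in 96-well plates and exposed to each compound for 48 hours at five concentrations; endpoints were interpolated linearly between bracketing concentrations, or set to the highest concentration if not reached. GI50 = concentration required for 50% inhibition of growth. TGI is the concentration that stops growth completely.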

What was measured:
Experiment in all cases: NCI anticancer screen, dose series, 48 h
UACC-62 melanoma = system: UACC-62 melanoma
HOP-92 NSCLC = system: HOP-92 NSCLC
SR leukemia = system: SR leukemia
RPMI-8226 leukemia = system: RPMI-8226 leukemia
HS 578T breast = system: HS 578T breast
M14 melanoma = system: M14 melanoma
786-0 renal = system: 786-0 renal
SF-539 CNS = system: SF-539 CNS
SF-295 CNS = system: SF-295 CNS
T-47D breast = system: T-47D breast
EKVX NSCLC = system: EKVX NSCLC
UO-31 renal = system: UO-31 renal
UACC-257 melanoma = system: UACC-257 melanoma
SN12C renal = system: SN12C renal
LOX IMVI melanoma = system: LOX IMVI melanoma
SNB-75 CNS = system: SNB-75 CNS
OVCAR-4 ovarian = system: OVCAR-4 ovarian
HCC-2998 colon = system: HCC-2998 colon
HOP-62 NSCLC = system: HOP-62 NSCLC
SNB-19 CNS = system: SNB-19 CNS
HL-60(TB) leukemia = system: HL-60(TB) leukemia
OVCAR-5 ovarian = system: OVCAR-5 ovarian
OVCAR-8 ovarian = system: OVCAR-8 ovarian
SK-MEL-2 melanoma = system: SK-MEL-2 melanoma
HCT-15 colon = system: HCT-15 colon
CCRF-CEM leukemia = system: CCRF-CEM leukemia
COLO 205 colon = system: COLO 205 colon
NCI-H23 lung = system: NCI-H23 lung
A549 NSCLC = system: A549 NSCLC
SF-268 CNS = system: SF-268 CNS
PC-3 prostate = system: PC-3 prostate
NCI-H460 lung = system: NCI-H460 lung
BT-549 breast = system: BT-549 breast
NCI-H522 lung = system: NCI-H522 lung
SK-OV-3 ovarian = system: SK-OV-3 ovarian
DU-145 prostate = system: DU-145 prostate
MDA-MB-435 = system: MDA-MB-435
MDA-MB-231 breast = system: MDA-MB-231 breast
TK-10 renal = system: TK-10 renal
MALME-3M melanoma = system: MALME-3M melanoma
ACHN renal = system: ACHN renal
OVCAR-3 ovarian = system: OVCAR-3 ovarian
SK-MEL-28 melanoma = system: SK-MEL-28 melanoma
SK-MEL-5 melanoma = system: SK-MEL-5 melanoma
SW-620 colon = system: SW-620 colon
MOLT-4 leukemia = system: MOLT-4 leukemia
K-562 leukemia = system: K-562 leukemia
CAKI-1 renal = system: CAKI-1 renal
HT29 colon = system: HT29 colon
NCI-H226 lung = system: NCI-H226 lung
IGROV1 ovarian = system: IGROV1 ovarian
U251 CNS = system: U251 CNS
KM12 colon = system: KM12 colon
HCT-116 colon = system: HCT-116 colon
A498 renal = system: A498 renal
MCF7 breast = system: MCF7 breast
RXF 393 renal = system: RXF 393 renal
NCI/ADR-RES ovarian = system: NCI/ADR-RES ovarian

`CCCN(CCC)c1ccc(C=O)c(C)c1` was tested, and the GI50 (UACC-62 melanoma) was 28.4 µM, the TGI (UACC-62 melanoma) was greater than 100 µM and the GI50 (HOP-92 NSCLC) was 16.4 µM. The TGI (HOP-92 NSCLC) was 64.7 µM, the GI50 (SR leukemia) was 40.3 µM and the TGI (SR leukemia) was greater than 100 µM. For the same compound, the GI50 (RPMI-8226 leukemia) was 69.4 µM, the TGI (RPMI-8226 leukemia) was greater than 100 µM and the GI50 (HS 578T breast) was 39.7 µM. It also gave a TGI (HS 578T breast) greater than 100 µM, a GI50 (M14 melanoma) of 44.8 µM and a TGI (M14 melanoma) greater than 100 µM. It also gave a GI50 (786-0 renal) of 43.9 µM, a TGI (786-0 renal) greater than 100 µM and a GI50 (SF-539 CNS) greater than 70.5 µM. The TGI (SF-539 CNS) was greater than 100 µM, the GI50 (SF-295 CNS) was 29.1 µM and the TGI (SF-295 CNS) was greater than 100 µM. For the same compound, the GI50 (T-47D breast) was 20.8 µM, the TGI (T-47D breast) was 98.9 µM and the GI50 (EKVX NSCLC) was 24.2 µM. For the same compound, the TGI (EKVX NSCLC) was greater than 100 µM, the GI50 (UO-31 renal) was 21.5 µM and the TGI (UO-31 renal) was greater than 100 µM. For the same compound, the GI50 (UACC-257 melanoma) was 19.2 µM, the TGI (UACC-257 melanoma) was greater than 96.3 µM and the GI50 (SN12C renal) was 56.7 µM. The TGI (SN12C renal) was greater than 100 µM, the GI50 (LOX IMVI melanoma) was 65 µM and the TGI (LOX IMVI melanoma) was greater than 100 µM. For the same compound, the GI50 (SNB-75 CNS) was 22.3 µM, the TGI (SNB-75 CNS) was 97.7 µM and the GI50 (OVCAR-4 ovarian) was 21.5 µM. It also gave a TGI (OVCAR-4 ovarian) greater than 100 µM, a GI50 (HCC-2998 colon) of 52.4 µM and a TGI (HCC-2998 colon) greater than 100 µM. It also gave a GI50 (HOP-62 NSCLC) of 98.1 µM, a TGI (HOP-62 NSCLC) greater than 100 µM and a GI50 (SNB-19 CNS) of 60.9 µM. For the same compound, the TGI (SNB-19 CNS) was greater than 100 µM, the GI50 (HL-60(TB) leukemia) was 30.8 µM and the TGI (HL-60(TB) leukemia) was greater than 84.4 µM. The GI50 (OVCAR-5 ovarian) was 58.5 µM, the TGI (OVCAR-5 ovarian) was greater than 100 µM and the GI50 (OVCAR-8 ovarian) was 57.2 µM. For the same compound, the TGI (OVCAR-8 ovarian) was greater than 100 µM, the GI50 (SK-MEL-2 melanoma) was 30.9 µM and the TGI (SK-MEL-2 melanoma) was greater than 100 µM. For the same compound, the GI50 (HCT-15 colon) was 41.6 µM, the TGI (HCT-15 colon) was greater than 100 µM and the GI50 (CCRF-CEM leukemia) was 46.8 µM. It also gave a TGI (CCRF-CEM leukemia) greater than 100 µM, a GI50 (COLO 205 colon) of 29.1 µM and a TGI (COLO 205 colon) greater than 100 µM. It also gave a GI50 (NCI-H23 lung) of 35.8 µM, a TGI (NCI-H23 lung) greater than 100 µM and a GI50 (A549 NSCLC) of 70.7 µM. It also gave a TGI (A549 NSCLC) greater than 100 µM, a GI50 (SF-268 CNS) of 68 µM and a TGI (SF-268 CNS) greater than 100 µM. For the same compound, the GI50 (PC-3 prostate) was 32.7 µM, the TGI (PC-3 prostate) was greater than 100 µM and the GI50 (NCI-H460 lung) was 46.5 µM. The TGI (NCI-H460 lung) was greater than 100 µM, the GI50 (BT-549 breast) was 26.9 µM and the TGI (BT-549 breast) was greater than 100 µM. The GI50 (NCI-H522 lung) was 37.4 µM, the TGI (NCI-H522 lung) was greater than 100 µM and the GI50 (SK-OV-3 ovarian) was greater than 100 µM. The TGI (SK-OV-3 ovarian) was greater than 100 µM, the GI50 (DU-145 prostate) was 77.6 µM and the TGI (DU-145 prostate) was greater than 100 µM. The GI50 (MDA-MB-435) was 32.6 µM, the TGI (MDA-MB-435) was greater than 100 µM and the GI50 (MDA-MB-231 breast) was 41.3 µM. The TGI (MDA-MB-231 breast) was greater than 100 µM, the GI50 (TK-10 renal) was 41.6 µM and the TGI (TK-10 renal) was greater than 100 µM. The GI50 (MALME-3M melanoma) was 43.8 µM, the TGI (MALME-3M melanoma) was greater than 100 µM and the GI50 (ACHN renal) was 49.4 µM. The TGI (ACHN renal) was greater than 100 µM, the GI50 (OVCAR-3 ovarian) was 35.4 µM and the TGI (OVCAR-3 ovarian) was greater than 100 µM. The GI50 (SK-MEL-28 melanoma) was 68.2 µM, the TGI (SK-MEL-28 melanoma) was greater than 100 µM and the GI50 (SK-MEL-5 melanoma) was 21.2 µM. For the same compound, the TGI (SK-MEL-5 melanoma) was greater than 61.9 µM, the GI50 (SW-620 colon) was 45.9 µM and the TGI (SW-620 colon) was greater than 100 µM. The GI50 (MOLT-4 leukemia) was 39.8 µM, the TGI (MOLT-4 leukemia) was greater than 100 µM and the GI50 (K-562 leukemia) was 68.7 µM. It also gave a TGI (K-562 leukemia) greater than 100 µM, a GI50 (CAKI-1 renal) of 33.7 µM and a TGI (CAKI-1 renal) greater than 100 µM. The GI50 (HT29 colon) was 33.5 µM, the TGI (HT29 colon) was greater than 100 µM and the GI50 (NCI-H226 lung) was 11.3 µM. It also gave a TGI (NCI-H226 lung) greater than 71.5 µM, a GI50 (IGROV1 ovarian) of 61 µM and a TGI (IGROV1 ovarian) greater than 100 µM. It also gave a GI50 (U251 CNS) of 38.5 µM, a TGI (U251 CNS) greater than 100 µM and a GI50 (KM12 colon) of 44.7 µM. The TGI (KM12 colon) was greater than 100 µM, the GI50 (HCT-116 colon) was 35 µM and the TGI (HCT-116 colon) was greater than 100 µM. It also gave a GI50 (A498 renal) of 1.27 µM, a TGI (A498 renal) of 3.28 µM and a GI50 (MCF7 breast) of 40.8 µM. The TGI (MCF7 breast) was greater than 100 µM, the GI50 (RXF 393 renal) was 34.3 µM and the TGI (RXF 393 renal) was greater than 100 µM. It also gave a GI50 (NCI/ADR-RES ovarian) of 36.1 µM and a TGI (NCI/ADR-RES ovarian) greater than 100 µM.
